# Laboratory results reported in US8338619B2, “Crystalline form of the zoledronic acid, a process to obtain it and the pharmaceutical composition comprising it” (Gador S.A., priority 2005, dated 2012).
# Assay: TGA Kinetics Analysis of dehydration (constant heating rate thermogravimetry, ASTM E1641)
# Assay type: physicochemical
# Experimental: In this Example, thermogravimetric analysis (TGA) is used as an analytical methodology to quantify the thermal stability parameters of solid chemicals. The data generated from these measurements is analyzed to obtain Arrhenius kinetic parameters such us activation energy (Ea) and preexponential factor. The activation energies of two different hydrates—zoledronic acid monohydrate and trihydrate—is obtained to analyze the dehydration reaction of these two forms to anhydrous form so that the their relative solid-state thermal stability can be ranked based on their activation energy values.
# Thermogravimetric analysis (TGA) is a thermal analysis technique which measures the amount and rate of change on the weight of a material as a function of temperature or time in a controlled atmosphere. TGA measurements are used primarily to determinate the composition of materials and to predict their thermal stability up to elevate temperatures. However, with proper experimental procedures, additional information about the kinetics of decomposition and in-use lifetime predictions can be obtained.
# TGA Kinetics Analysis method covers determination of the kinetic parameters, Arrhenius activation energy preexponential factor by thermogravimetry, based on the assumption that the decomposition to obeys first-order kinetics.
# This program utilizes data gathered by running a sample at various heating rates. […]
SMILES,solid-state kinetic thermal stability (relative ranking from activation energy) (trihydrate vs monohydrate),"Activation energy (dehydration to anhydrous form) (at 50.0 percent of conversion level, TGA at 5, 10 and 20° C./min from 25 to 200° C., dry nitrogen purge, Monohydrate) [kcal/mol]"
"O=P(O)(O)C(O)(Cn1ccnc1)P(=O)(O)O [Zoledronic acid trihydrate, Zoledronic Acid Trihydrate]",greater than monohydrate form,–
"O=P(O)(O)C(O)(Cn1ccnc1)P(=O)(O)O [Zoledronic acid monohydrate, Zoledronic Acid Monohydrate]",–,36.33
